Test results published in patent US10272056B2, “Treatment for mitochondrial diseases” (The George Washington University a Congressionally …, priority 2015, dated 2019).

Columns and labels:
[1] = tested on: E17.5 hippocampal neurons; test: Mitochondrial mass in neurons (mito-GFP, quantitative immunohistochemistry COXVα/tubulin); assay type: cell-based; conditions: NaBt-treated E17.5 neurons; control 7%
Description: FIG. 7A-7F show images from microscopy and graphs showing NaBt increases mitochondrial mass. (A) Live cell confocal microscopy of E17.5 hippocampal neurons; high magnification in inset; scale bar=5 (B) Quantitative analysis of the mitochondrial biomass in E17.5 neurons using an anti-CoxVα antibody; *p<0.001. (C) Live cell confocal microscopy of PC12-ND6 cells; high magnification in inset; scale bar=5 (D) Flow cytometric analysis of mitochondrial mass; *p<0.001. (E) Confocal microscopy of E17.5 brains from E12.5 pregnant dams treated with PBS (sham) or NaBt; scale bar=20 (F) Quantitative analysis of mitochondrial mass; *p<0.001.
Experimental approaches. Five distinct molecular tools were used to investigate mitochondrial biogenesis: 1) the mitochondrial-specific dyes, MitoTracker® Green (MTG) and MitoTracker® Red (MTR); 2) the mito-GFP or mito-dsRed vector to fluorescently label mitochondria; 3) antibodies against mtDNA, COXVα, or SOD2; 4) the fluorescent PicoGreen® dye labeling mtDNA; and 5) quantitative PCR to determine mtDNA copy number.
The effect of NaBt was investigated in embryonic neuronal progenitor cells, E17.5 hippocampal neurons, which were transfected with the mito-GFP vector and then exposed to various concentrations of NaBt. […] Therefore, all subsequent treatment of E17.5 hippocampal neurons with NaBt was performed in the presence of 2 mM. […]

[2] = tested on: PC12-ND6 cells; test: NaBt dose-dependent acetylation of nuclear proteins (anti-acetylated Lys immunocytochemistry); assay type: cell-based; conditions: three days, 2, 5 and 10 mM tested
Description: FIG. 4A-4E are images from microscopy and graphs showing NaBt dose-dependent acetylation and cellular toxicity in PC12-ND6 cells and embryonic E17.5 hippocampal neurons. (A) Confocal micrographs of PC12-ND6 cells (referred to as ND6) grown in the absence or presence of NaBt for three days and labeled with an anti-acetylated Lys antibody (AcLys; green). Scale bar represents 10 μm. […] Results are expressed as relative fluorescence intensity±S.D. (n=250 cells per NaBt concentration; * p=0.0001). (C) Effect of NaBt on PC12-ND6 cell viability. […] Mean±SEM (n=250 cells for each experimental condition; * p=0.0001). (D) Confocal micrographs of NaBt dose-dependent acetylation in E17.5 hippocampal neurons (AcLys; green). Scale bar represents 10 μm.
Sodium butyrate increases protein acetylation in a dose-dependent manner without inducing cellular toxicity. A dose response analysis was performed to determine the optimal concentration of sodium butyrate (NaBt) for inducing maximal acetylation levels with minimal cellular toxicity. PC12-ND6 cells were treated with different concentrations of NaBt (2 mM, 5 mM, and 10 mM) for three days before assessing the degree of acetylated lysine residues by immunocytochemistry and cell viability by live-cell confocal microscopy using the Nuclear-ID™ stain.

CCCC(=O)[O-].[Na+] [NaBt, sodium butyrate]
mitochondria as percent of the cell volume [1]: 18%
NaBt concentration showing maximal acetylation levels of nuclear proteins [2]: 5 mM
